Where a name gives a salt, the structure may show the parent alone.
Experiments:
Type in all cases: biochemical
FAAH [1] = biological target: T1, FAAH (Homo sapiens (Human), UniProt O00519); test: Assay Method 2: FAAH assay, cells transfected with human FAAH; settings: T84 or human FAAH-transfected SK-N-MC cell homogenate, 3H-AEA tracer 80 nM, 1 h at rt
Description: Assay Method 2 A. Transfection of Cells with Human FAAH
(§1) A 10-cm tissue culture dish with a confluent monolayer of SK-N-MC cells was split 2 days (d) prior to transfection. Using sterile technique, the media was removed and the cells were detached from the dish by the addition of trypsin. One fifth of the cells were then placed onto a new 10-cm dish. Cells were grown in a 37° C. incubator with 5% CO2 in Minimal Essential Media Eagle with 10% Fetal Bovine Serum. After 2 d, cells were approximately 80% confluent. These cells were removed from the dish with trypsin and pelleted in a clinical centrifuge. The pellet was re-suspended in 400 μL complete media and transferred to an electroporation cuvette with a 0.4 cm gap between the electrodes. Supercoiled human FAAH cDNA (1 pg) was added to the cells and mixed. The voltage for the electroporation was set at 0.25 kV, and the capacitance was set at 960 μF. After electroporation, the cells were diluted into complete media (10 mL) and plated onto four 10-cm dishes. Because of the variability in the efficiency of electroporation, four different concentrations of cells were plated. The ratios used were 1:20, 1:10, and 1:5, with the remainder of the cells being added to the fourth dish. The cells were allowed to recover for 24 h before adding the selection media (complete media with 600 μg/mL G418). After 10 d, dishes were analyzed for surviving colonies of cells. Dishes with well-isolated colonies were used. Cells from individual colonies were isolated and tested.
(§2) T84 frozen cell pellets or transfected SK-N-MC cells (contents of 1×15 cm culture dishes) were homogenized in 50 mL of FAAH assay buffer (125 mM Tris, 1 mM EDTA, 0.2% Glycerol, 0.02% Triton X-100, 0.4 mM Hepes, pH 9). The assay mixture consisted of 50 μL of the cell homogenate, 10 μL of the test compound, and 40 pt of anandamide [1-^3H-ethanolamine] (^3H-AEA, Perkin-Elmer, 10.3 Ci/mmol), which was added last, for a final tracer concentration of 80 nM. The reaction mixture was incubated at rt for 1 h. During the incubation, 96-well Multiscreen filter plates (catalog number MAFCNOB50; Millipore, Bedford, Mass., USA) were loaded with 25 μL of activated charcoal (Multiscreen column loader, catalog number MACL09625, Millipore) and washed once with 100 μL of MeOH. Also during the incubation, 96-well DYNEX MicroLite plates (catalog number NL510410) were loaded with 100 μL of MicroScint40 (catalog number 6013641, Packard Bioscience, Meriden, Conn., USA). After the 1 h incubation, 60 μL of the reaction mixture were transferred to the charcoal plates, which were then assembled on top of the DYNEX plates using Centrifuge Alignment Frames (catalog number MACF09604, Millipore). The unbound labeled ethanolamine was centrifuged through to the bottom plate (5 min at 2000 rpm), which was preloaded with the scintillant, as described above. The plates were sealed and left at rt for 1 h before counting on a Hewlett Packard TopCount.

rat FAAH = rat FAAH (Rattus norvegicus (Rat), UniProt P97612); test: Assay Method 3: FAAH assay, cells transfected with rat FAAH; settings: T84 or rat FAAH-transfected SK-N-MC cell homogenate, 3H-AEA tracer 80 nM, 1 h at rt
Description: Assay Method 3 A. Transfection of Cells with Rat FAAH
as §1, with “rat” for “human”, “μg)” for “pg)”
as §2, with “μL” for “pt”

FAAH [2] = biological target: T1, FAAH; test: Assay Method 1: FAAH assay, T84 cell homogenate, 3H-anandamide hydrolysis; settings: 3H-AEA tracer 200 nM, 1 h at rt
Procedure, shortened: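 Homogenate of human T84 cells in pH 9 Tris/EDTA buffer with 0.02% Triton X-100 was incubated with compound and 200 nM final 3H-anandamide for 1 h at rt. Released [3H]ethanolamine was separated from substrate through activated charcoal by centrifugation and quantified by scintillation counting.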

T1 sequence (O00519 whole entry): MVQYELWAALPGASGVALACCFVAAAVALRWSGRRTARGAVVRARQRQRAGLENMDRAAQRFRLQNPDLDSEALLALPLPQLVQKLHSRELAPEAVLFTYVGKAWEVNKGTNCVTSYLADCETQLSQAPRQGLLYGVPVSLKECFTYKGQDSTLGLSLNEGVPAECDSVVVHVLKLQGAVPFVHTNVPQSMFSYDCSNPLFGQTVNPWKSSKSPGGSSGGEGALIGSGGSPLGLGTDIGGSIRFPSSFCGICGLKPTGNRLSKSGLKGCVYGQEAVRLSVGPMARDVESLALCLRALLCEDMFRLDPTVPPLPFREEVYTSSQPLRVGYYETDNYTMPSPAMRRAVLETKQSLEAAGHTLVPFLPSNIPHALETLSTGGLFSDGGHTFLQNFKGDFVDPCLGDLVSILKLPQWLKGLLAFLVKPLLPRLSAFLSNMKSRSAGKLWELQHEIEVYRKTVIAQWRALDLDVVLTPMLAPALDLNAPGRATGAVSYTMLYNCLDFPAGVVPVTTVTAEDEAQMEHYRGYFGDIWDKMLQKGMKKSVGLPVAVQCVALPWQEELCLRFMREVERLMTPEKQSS
rat FAAH, sequence (P97612 whole entry): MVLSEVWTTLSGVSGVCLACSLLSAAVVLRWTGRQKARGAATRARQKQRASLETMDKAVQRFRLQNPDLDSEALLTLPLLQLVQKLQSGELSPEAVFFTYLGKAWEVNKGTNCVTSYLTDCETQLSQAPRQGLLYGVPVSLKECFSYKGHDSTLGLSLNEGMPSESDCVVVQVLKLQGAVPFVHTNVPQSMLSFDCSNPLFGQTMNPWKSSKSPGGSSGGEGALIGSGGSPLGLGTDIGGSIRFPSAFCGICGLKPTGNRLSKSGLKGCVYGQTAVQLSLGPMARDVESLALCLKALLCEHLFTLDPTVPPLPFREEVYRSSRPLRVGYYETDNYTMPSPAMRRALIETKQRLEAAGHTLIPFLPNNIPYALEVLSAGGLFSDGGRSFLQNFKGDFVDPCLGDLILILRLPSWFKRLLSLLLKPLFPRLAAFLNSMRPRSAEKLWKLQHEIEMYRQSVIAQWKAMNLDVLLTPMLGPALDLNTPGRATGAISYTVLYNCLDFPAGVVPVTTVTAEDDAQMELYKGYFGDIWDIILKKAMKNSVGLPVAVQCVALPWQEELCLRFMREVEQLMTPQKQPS

Question: `O=C(O)c1ccc(NC(=O)N2CCN(Cc3cnc4ccccc4c3)CC2)cc1` [Example 155, 4-[(4-Quinolin-3-ylmethyl-piperazine-1-carbonyl)-amino]-benzoic acid] was tested. Which IC50 (FAAH [1]) did it give?
Answer: 8 µM

Question: What about the IC50 (rat FAAH) of the same compound?
Answer: 10 µM

Question: What does the source list for `O=C(Nc1ccccc1)N1CCN(Cc2ccccc2O)CC1` [Example 41, 4-(2-Hydroxy-benzyl)-piperazine-1-carboxylic acid phenylamide]?
Answer: IC50 (FAAH [2]): 1.3 µM; IC50 (FAAH [1]): 3 µM; IC50 (rat FAAH): 10 µM

Question: `O=C(Nc1ccccc1)N1CCN(Cc2cnc3ccccc3n2)CC1` [Example 156, 4-Quinoxalin-2-ylmethyl-piperazine-1-carboxylic acid phenylamide] was tested. Which IC50 (FAAH [1]) did it give?
Answer: 0.84 µM

Question: And the IC50 (rat FAAH)?
Answer: 8 µM

Question: For `O=C(Nc1ccncc1)N1CCN(Cc2cnc3ccccc3c2)CC1` [Example 144, 4-Quinolin-3-ylmethyl-piperazine-1-carboxylic acid pyridin-4-ylamide], which IC50 (FAAH [1]) is on record?
Answer: 2 µM

Question: And the IC50 (rat FAAH)?
Answer: 10 µM

Question: What does the source list for `O=C(Nc1ccncc1)N1CCN(Cc2ccc3c(c2)OCO3)CC1` [Example 147, 4-Benzo[1,3]dioxol-5-ylmethyl-piperazine-1-carboxylic acid pyridin-4-ylamide]?
Answer: IC50 (FAAH [1]): 3 µM; IC50 (rat FAAH): 10 µM

Question: Which IC50 (FAAH [1]) does the source give for `O=C(O)c1ccccc1NC(=O)N1CCN(Cc2cnc3ccccc3c2)CC1` [Example 140, 2-[(4-Quinolin-3-ylmethyl-piperazine-1-carbonyl)-amino]-benzoic acid (potassium salt)] here?
Answer: > 10 µM

Question: And the IC50 (rat FAAH)?
Answer: 10 µM

Question: With `O=C(Nc1ccccn1)N1CCN(Cc2ccc3c(c2)OCO3)CC1` [Example 149, 4-Benzo[1,3]dioxol-5-ylmethyl-piperazine-1-carboxylic acid pyridin-2-ylamide] as the compound, how does the IC50 (FAAH [1]) read?
Answer: 4 µM

Question: What about the IC50 (rat FAAH) of the same compound?
Answer: 10 µM

Question: Which IC50 (FAAH [1]) does the source give for `O=C(Nc1cccnc1)N1CCN(Cc2cnc3ccccc3c2)CC1` [Example 142, 4-Quinolin-3-ylmethyl-piperazine-1-carboxylic acid pyridin-3-ylamide] here?
Answer: 4.1 µM

Question: And the IC50 (rat FAAH)?
Answer: 4 µM

Question: Which results are given for `COC(=O)c1ccc(NC(=O)N2CCN(Cc3cnc4ccccc4c3)CC2)cc1` [Example 107, 4-[(4-Quinolin-3-ylmethyl-piperazine-1-carbonyl)-amino]-benzoic acid methyl ester]?
Answer: IC50 (FAAH [1]): 0.65 µM; IC50 (rat FAAH): 8 µM

Question: With `COC(=O)c1ccccc1NC(=O)N1CCN(Cc2cnc3ccccc3c2)CC1` [Example 105, 2-[(4-Quinolin-3-ylmethyl-piperazine-1-carbonyl)-amino]-benzoic acid methyl ester] as the compound, how does the IC50 (FAAH [1]) read?
Answer: > 10 µM

Question: And the IC50 (rat FAAH)?
Answer: 10 µM

Question: How did the IC50 (FAAH [1]) turn out when `O=C(Nc1ccncn1)N1CCN(Cc2cnc3ccccc3c2)CC1` [Example 152, 4-Quinolin-3-ylmethyl-piperazine-1-carboxylic acid pyrimidin-4-ylamide] was run?
Answer: 4 µM

Question: What about the IC50 (rat FAAH) of the same compound?
Answer: 10 µM

Question: Which results are given for `O=C(Nc1ccccc1)N1CCN(Cc2ccc(Cl)c(Cl)c2)CC1` [Example 157, 4-(3,4-Dichloro-benzyl)-piperazine-1-carboxylic acid phenylamide]?
Answer: IC50 (FAAH [1]): 0.065 µM; IC50 (rat FAAH): 0.35 µM

Question: Which results are given for `O=C(O)c1cccc(NC(=O)N2CCN(Cc3cnc4ccccc4c3)CC2)c1` [Example 141, 3-[(4-Quinolin-3-ylmethyl-piperazine-1-carbonyl)-amino]-benzoic acid (potassium salt)]?
Answer: IC50 (FAAH [1]): 5 µM; IC50 (rat FAAH): 8 µM

Question: What does the source list for `O=C(Nc1nccs1)N1CCN(Cc2cnc3ccccc3c2)CC1` [Example 158, 4-Quinolin-3-ylmethyl-piperazine-1-carboxylic acid thiazol-2-ylamide]?
Answer: IC50 (FAAH [1]): > 10 µM; IC50 (rat FAAH): 10 µM

Question: `O=C(Nc1cccnc1)N1CCN(Cc2ccc3c(c2)OCO3)CC1` [Example 146, 4-Benzo[1,3]dioxol-5-ylmethyl-piperazine-1-carboxylic acid pyridin-3-ylamide] was tested. Which IC50 (FAAH [1]) did it give?
Answer: 0.38 µM

Question: What about the IC50 (rat FAAH) of the same compound?
Answer: 6.5 µM

Question: Which IC50 (FAAH [1]) does the source give for `O=C(Nc1ccccn1)N1CCN(Cc2cnc3ccccc3c2)CC1` [Example 143, 4-Quinolin-3-ylmethyl-piperazine-1-carboxylic acid pyridin-2-ylamide] here?
Answer: 1.8 µM

Question: And the IC50 (rat FAAH)?
Answer: 8 µM

Question: `COC(=O)c1cccc(NC(=O)N2CCN(Cc3cnc4ccccc4c3)CC2)c1` [Example 106, 3-[(4-Quinolin-3-ylmethyl-piperazine-1-carbonyl)-amino]-benzoic acid methyl ester] was tested. Which IC50 (FAAH [1]) did it give?
Answer: 0.23 µM

Question: And the IC50 (rat FAAH)?
Answer: 2 µM

Question: How did the IC50 (FAAH [1]) turn out when `O=C(Nc1ccncc1)N1CCN(Cc2ccc3c(c2)OC(F)(F)O3)CC1` [Example 151, 4-(2,2-Difluoro-benzo[1,3]dioxol-5-ylmethyl)-piperazine-1-carboxylic acid pyridin-4-ylamide] was run?
Answer: 1.7 µM

Question: And the IC50 (rat FAAH)?
Answer: 2 µM

Question: With `O=C(Nc1ncccn1)N1CCN(Cc2ccc3c(c2)OCO3)CC1` [Example 148, 4-Benzo[1,3]dioxol-5-ylmethyl-piperazine-1-carboxylic acid pyrimidin-2-ylamide] as the compound, how does the IC50 (FAAH [1]) read?
Answer: > 10 µM

Question: And the IC50 (rat FAAH)?
Answer: 10 µM

Question: For `O=C(Nc1ncccn1)N1CCN(Cc2cnc3ccccc3c2)CC1` [Example 145, 4-Quinolin-3-ylmethyl-piperazine-1-carboxylic acid pyrimidin-2-ylamide], which IC50 (FAAH [1]) is on record?
Answer: 8 µM

Question: What about the IC50 (rat FAAH) of the same compound?
Answer: 10 µM

Question: With `O=C(Nc1ccncn1)N1CCN(Cc2ccc3c(c2)OC(F)(F)O3)CC1` [Example 153, 4-(2,2-Difluoro-benzo[1,3]dioxol-5-ylmethyl)-piperazine-1-carboxylic acid pyrimidin-4-ylamide] as the compound, how does the IC50 (FAAH [1]) read?
Answer: 1 µM

Question: And the IC50 (rat FAAH)?
Answer: 60 µM

Question: With `O=C(Nc1ccncn1)N1CCN(Cc2ccc(Br)c(Br)c2)CC1` [Example 154, 4-(3,4-Dibromo-benzyl)-piperazine-1-carboxylic acid pyrimidin-4-ylamide] as the compound, how does the IC50 (FAAH [1]) read?
Answer: 0.282 µM

Question: And the IC50 (rat FAAH)?
Answer: 2 µM

Question: What does the source list for `CN(C(=O)N1CCN(Cc2ccc(Br)c(Br)c2)CC1)c1ccccc1` [Example 160, 4-(3,4-Dibromo-benzyl)-piperazine-1-carboxylic acid methyl-phenyl-amide]?
Answer: IC50 (FAAH [1]): > 10 µM; IC50 (rat FAAH): 10 µM

From patent US9169224B2, “Piperazinyl and piperidinyl ureas as modulators of fatty acid amide hydrolase” (Janssen Pharmaceutica NV, priority 2004, dated 2015)
